In patent publication US12351574B2, “Selective ligands for modulation of GIRK channels” (Northeastern University, priority 2018, dated 2025):

Columns and labels:
[1] = test system: right atrium of isolated Langendorff-perfused mouse heart; experiment: optical mapping of atrial action potential duration in isolated Langendorff-perfused mouse heart; details: for atrial optical action potential duration 70% repolarization (APD70), quantification: 2.4 μM, 10 Hz stimulation, FIGS. 23A-23B, controls 23.93 (ML297) and 23.1 (GAT1508); for average APD70 of the map of the stimulated right atrium: 10 minutes after 2.4 μM, 10 Hz, FIG. 22, controls 23.9 (ML297) and 21.8 (GAT1508)
Method: Optical mapping studies in isolated hearts: Isolated hearts of C57BL/6 mice, four to six months of age, were retrogradely perfused with Tyrode's solution in the Langendorff mode. The preparations were maintained at 37° C., and stained with a bolus of a voltage sensitive dye (0.25 ml, 10 μM Di-4-ANEPPS, Molecular Probes) and imaged with a CCD camera (RedShirt Imaging), 80×80 pixels, 85 μm per pixel, and 1000 frames per second. […] A bipolar, silver tip stimulation electrode was used to pace the right atrium (2.5 5 ms pulses, 2× diastolic threshold) at 10 Hz using an AD Instrument stimulation platform. ML297 or GAT1508 at 2.4 μM were introduced into the perfusate. The action potential duration at 70% repolarization (APD70), was quantified as the inventors have done extensively.

GIRK1-S65Y with GIRK4 = target: T1, GIRK1-S65Y with GIRK4 (Homo sapiens, UniProt P48544+P48549, S65Y); experiment: 5-ptaseOCRL current inhibition, GIRK1/4 channels containing GIRK1-S65Y subunits; assay type: cell-based
T1 construct: expressed in transfected cells; host or cells: HEK293-T cells
T1 sequence (P48549 1-501 S65Y): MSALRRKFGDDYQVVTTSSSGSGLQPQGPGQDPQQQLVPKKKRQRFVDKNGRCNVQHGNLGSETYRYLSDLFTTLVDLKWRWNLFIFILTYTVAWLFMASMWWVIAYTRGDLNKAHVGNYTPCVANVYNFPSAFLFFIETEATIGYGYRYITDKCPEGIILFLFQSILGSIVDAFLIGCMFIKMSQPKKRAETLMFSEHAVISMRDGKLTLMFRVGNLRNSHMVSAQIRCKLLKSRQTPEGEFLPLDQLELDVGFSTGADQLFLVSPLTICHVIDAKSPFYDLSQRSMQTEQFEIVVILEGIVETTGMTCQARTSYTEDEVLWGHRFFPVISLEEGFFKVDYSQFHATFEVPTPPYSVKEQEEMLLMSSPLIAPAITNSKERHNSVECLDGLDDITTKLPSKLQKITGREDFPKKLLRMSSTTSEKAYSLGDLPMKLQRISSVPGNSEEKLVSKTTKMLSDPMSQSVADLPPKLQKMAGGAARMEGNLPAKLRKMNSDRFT
T1 sequence (P48544 1-419): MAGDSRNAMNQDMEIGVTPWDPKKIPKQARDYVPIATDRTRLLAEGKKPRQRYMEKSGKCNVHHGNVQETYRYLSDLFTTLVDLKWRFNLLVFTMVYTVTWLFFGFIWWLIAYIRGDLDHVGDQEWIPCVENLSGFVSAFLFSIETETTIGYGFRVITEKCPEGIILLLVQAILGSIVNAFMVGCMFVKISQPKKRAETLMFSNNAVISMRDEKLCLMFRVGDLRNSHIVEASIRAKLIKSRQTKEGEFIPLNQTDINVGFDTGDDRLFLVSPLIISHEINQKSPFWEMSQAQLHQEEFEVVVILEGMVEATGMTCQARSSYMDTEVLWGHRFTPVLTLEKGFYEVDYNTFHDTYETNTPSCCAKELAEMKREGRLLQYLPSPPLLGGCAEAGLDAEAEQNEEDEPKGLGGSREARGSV
Description: To identify changes in specific channel residue interactions with PIP2 upon ligand binding, the inventors carried out Principal Component Analysis (PCA) in the presence and absence of ML297 and GAT1508. The PCA analysis implicated changes in the slide (or interfacial) helix interactions with PIP2 upon ligand binding. Polar interactions could be formed between GIRK2^FD(Y76) and GIRK4^FD(Y71) with the P(4,5) of PIP2 when ML297 was bound to the same subunit (FIG. 39 top, FIG. 40). In contrast, when GAT1508 was bound this interaction was retained by GIRK2^FD but not GIRK4^FD (FIG. 39 bottom, FIG. 40). The corresponding GIRK1(S65) residue (FIG. 41, highlighted with vertical rectangle) could be serving the same role in stabilizing the phosphoinositol headgroup for interactions with non-ligand binding subunits. As polar residues, both Ser and Tyr could form H-bond interactions with PIP2. […]
Patch-clamp recording: Whole-cell currents were recorded with an Axopatch 200B amplifier (Molecular Devices) controlled via a USB-interface (National Instruments) using WinWCP software (University of Strathclyde). […] The barium-sensitive component of the current, observed when cells were perfused with the high-K^+ buffer, was analyzed and was determined by perfusing 5 mM BaCl2 in the high-K^+ buffer at the end of each experiment. […]

Cc1cc(NC(=O)Nc2ccc(Br)s2)n(-c2ccccc2)n1 [GAT1508, 1-(5-bromothiophen-2-yl)-3-(3-methyl-1-phenyl-1H-pyrazol-5-yl)urea]
atrial optical action potential duration 70% repolarization (APD70), quantification [1]: 23.57 ms | average APD70 of the map of the stimulated right atrium [1]: 20.3 ms | τ of current-inhibition (in words) (GIRK1-S65Y with GIRK4): not statistically increased

Cc1cc(NC(=O)Nc2ccc(F)c(F)c2)n(-c2ccccc2)n1 [ML297, reference compound]
atrial optical action potential duration 70% repolarization (APD70), quantification [1]: 16.53 ms | average APD70 of the map of the stimulated right atrium [1]: 16 ms | τ of current-inhibition (in words) (GIRK1-S65Y with GIRK4): not statistically increased
